Assay results from PubChem BioAssay AID179 (DTP/NCI, 2004).
Several values for one entry are separate records, joined by “and”; a condition that tells them apart may be missing. Equal values may be shown once. Activity calls are given as the source filed them.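 The calls were made as follows: active = compounds giving half or more protection of infected cells from virus-caused growth loss, again on retest; inactive = the rest.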

Tested on: CEM cells HIV-1 protection, formazan growth assay
Assay: NCI AIDS Antiviral Assay
Conditions: for IC50: measured here: growth of uninfected CEM cells
Method in brief: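 Soluble formazan readout of cell growth; CEM cells ± HIV-1; 5 drug concs. ≥50% protection → retest; ≥50% again = moderately active; reproducible 100% = confirmed active.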

Row | SMILES | EC50 | IC50 | outcome
1 | COc1cccc2c1ccc1nonc12 | > 129 µM | > 129 µM | –
2 | CCOc1ccc(N2C(=O)/C(=C/c3ccc(N(CCC#N)CCC#N)cc3)N=C2c2cc([N+](=O)[O-])ccc2Cl)cc1 | > 33.1 µM | 21.4 µM | –
3 | O=[N+]([O-])c1ccccc1S(=O)(=O)c1ccc(Cl)cc1 | 12.3 µM and 20.9 µM | 50.1 µM and 81.3 µM | –
4 | CCOC(=O)N1Cc2ccoc2C1 | > 75.9 µM | > 75.9 µM | –
5 | O=C(O)c1ccc(NCc2nc3ccccc3[nH]2)cc1 | > 200 µM | > 200 µM | –
6 | COc1cc(Nc2nc3cc(C)ccc3nc2-c2ccccc2)cc(OC)c1OC | > 200 µM | 34.7 µM | –
7 | CC(C)(C)c1ccc(OCCOc2ccc(C(C)(C)C)cc2NC=O)c(NC=O)c1 | > 200 µM | 5.13 µM | –
8 | O=C(O)CC1OC(=O)C(Br)=C1O (stereo unspecified) | > 1050 µM | > 1050 µM | –
9 | Nc1nc(Cl)cc(OCC2(CO)CC(OCc3ccccc3)C2)n1 (stereo unspecified) | > 200 µM | 41.7 µM | –
10 | C/C=C1\CN2CCC34c5ccccc5N(C)C35OCC4(C(=O)OC)C1CC25 (stereo unspecified) | > 83.2 µM | 25.7 µM | –
11 | O=C1CCCC2=C(N1)C(=O)C=CC2=O | > 955 µM | 8.71 µM | –
12 | O=C(O)C1OC(Oc2ccc3oc4ccccc4c(=O)c3c2)C(O)C(O)C1O (stereo unspecified) | > 174 µM | 145 µM | –
13 | CON(C)C(=O)C(Cc1ccccc1)NC(=O)OCc1ccccc1 (stereo unspecified) | > 200 µM | 182 µM | –
14 | O=C(Nc1ccc(/C=C\c2ccc(NC(=O)c3ccc4ccccc4c3O)cc2S(=O)(=O)O)c(S(=O)(=O)O)c1)c1ccc2ccccc2c1O | 126 µM | > 200 µM | –
15 | CC1=C2C(c3ccccc3)(c3ccccc3)C3C=CC2(C=N3)N(C(=O)NC2CCCCC2)C1=O (stereo unspecified) | > 11.5 µM | > 11.5 µM | –
16 | Cn1c(=O)c2ncnnc2n(C)c1=O | > 200 µM | 93.3 µM | –
17 | Cc1noc(NS(=O)(=O)c2ccc(NC(=O)c3ccc4nc5ccccc5c(Nc5ccc(S(=O)(=O)Nc6onc(C)c6C)cc5)c4c3)cc2)c1C | 63.1 µM | 110 µM | –
18 | O=C(CC1C(=O)Nc2ccccc2S1(=O)=O)Nc1ccc(Cl)cc1 (stereo unspecified) | > 5.5 µM | > 5.5 µM | –
19 | COCOc1c(OC)c(C2(O)C(=O)N(C)c3ccccc32)c(OCOC)c(OC)c1C1(O)C(=O)N(C)c2ccccc21 (stereo unspecified) | > 200 µM | 42.7 µM | –
20 | O=C(O/C=C\OC1CCCC1(c1ccccc1)c1ccccc1)c1ccccc1 (stereo unspecified) | > 200 µM | 3.8 µM | –
21 | O=C1CC(=O)NC(=NN2C(=O)/C(=C/c3ccc(Cl)cc3)N=C2c2ccccc2)N1 | > 200 µM | 32.4 µM | –

Row | SMILES | EC50 | IC50 | outcome
22 | O=c1cc2ccccc2nn1Cc1ccccc1Cl | > 251 µM | > 251 µM | –
23 | C=C1CN(S(=O)(=O)c2ccc(C)cc2)CCCN(Cc2ccccn2)CCCN(S(=O)(=O)c2ccc(C)cc2)C1 | > 200 µM | > 200 µM | –
24 | O=NN(O)c1ccccc1.O=NN(O)c1ccccc1.[Cu] | – | – | inactive
25 | COc1ccc(-c2oc3cc(OC)c(OC)c(OC)c3c(=O)c2OC)cc1OC | > 200 µM | 3.8 µM | –
26 | CCOc1ccc(NC(=O)C2=C(C)NC(C)=C(C(=O)Nc3ccc(OCC)cc3)C2c2ccccc2)cc1 | > 36.3 µM | > 36.3 µM | –
27 | COc1cccc(NC(=O)CC(=O)N2N=C(C)C(N=Nc3ccc(S(=O)(=O)CCOS(=O)(=O)O)cc3)C2=O)c1 (stereo unspecified) | > 200 µM | 3.02 µM | –
28 | N=C(/C=C/c1ccc(-c2cn3cc(/C=C/C(=N)N4CCCC4)ccc3n2)cc1)N1CCCC1 | 25.1 µM | 64.6 µM | –
29 | CC(=O)/C(=C/c1ccccc1Br)C(=O)c1ccccc1 | > 57.5 µM | 22.4 µM | –
30 | Nc1ccccc1-c1nc2c(ccc3ccccc32)[nH]1 | > 72.4 µM | 57.5 µM | –
31 | CN(C)c1ccc(N=C2C=CC(=O)c3ccccc32)cc1 | > 20 µM | 1.23 µM | –
32 | Cc1ccccc1Cn1nc2ccccc2cc1=O | > 380 µM | > 380 µM | –
33 | CCc1c2c(c(C)n1C)C(c1ccccc1)=NCC(=O)N2 | > 468 µM | 295 µM | –
34 | CCOC(=O)C1N(S(=O)(=O)c2ccc(C)cc2)CCC12C(c1ccc(OC)cc1)NC1CCCCC12 (stereo unspecified) | – | – | inactive
35 | O=C(O)CCCCCCCCCCCI | 27.5 µM | 110 µM | –
36 | c1ccc2c3[nH]c(c2c1)=Nc1ccc(cc1)-c1nc2ccc(cc2o1)N=c1[nH]c(c2ccccc12)=Nc1ccc2nc(oc2c1)-c1ccc(cc1)N=3 | > 200 µM | 37.2 µM | –
37 | Cc1c(Cc2cc(C(C)(C)C)c(O)c(C(C)(C)C)c2)c(C)c(Cc2cc(C(C)(C)C)c(O)c(C(C)(C)C)c2)c(C)c1Cc1cc(C(C)(C)C)c(O)c(C(C)(C)C)c1 | – | – | inactive
38 | CC1(C)O[C@@H](CCl)C[C@H](C#N)O1 | > 200 µM | > 200 µM | –
39 | O=C1c2ccccc2C(=O)c2sc(Nc3ccccc3Cl)nc21 | > 7.94 µM | > 7.94 µM | –
40 | COP(=O)(Cc1ccccc1)Cc1ccccc1 | > 200 µM | > 200 µM | –
41 | c1ccc(CNc2nncc3[nH]cnc23)cc1 | > 200 µM | > 200 µM | –
42 | O=C1c2ccccc2C(=O)N1CCC[P+](c1ccccc1)(c1ccccc1)c1ccccc1 | > 200 µM | 95.5 µM | –

Row | SMILES | EC50 | IC50 | outcome
43 | c1ccc(CN2CCC3(CC2)SSC2(CCN(Cc4ccccc4)CC2)SS3)cc1 | > 100 µM | 64.6 µM | –
44 | CCOC(=O)C(C)c1nc2c(Cl)c3ncccc3cc2[nH]c1=O (stereo unspecified) | > 200 µM | > 200 µM | –
45 | NC(=O)CCNC(=O)c1ccccc1SC(=O)CCCC[n+]1ccccc1 | 1.95 µM | 174 µM | –
46 | CN1CCC/C1=C1/C(=O)N(c2ccccc2)N=C1c1ccc[nH]1 | 191 µM | > 200 µM | –
47 | CC1CCC2(NC1)OC1CC3[C@@H]4CC=C5C=CCC[C@]5(C)C4CC[C@]3(C)C1C2C (stereo partly specified) | > 9.55 µM | > 9.55 µM | –
48 | CC(Cc1ccccc1)N(C)Cc1nc(C2CCC([N+](=O)[O-])O2)no1 (stereo unspecified) | > 200 µM | 36.3 µM | –
49 | N#CC(C#N)=C1SC(=Nc2ccccc2)C(=Nc2ccccc2)N1c1ccccc1 | > 200 µM | 1 µM | –
50 | O=C1c2ccccc2SC[C@@H]2CCCN12 | > 407 µM | > 407 µM | –
51 | CCOC(=O)C(=O)Nc1c(C)cccc1C(C)C | > 1000 µM | > 1000 µM | –
52 | O=c1c(C2=NCCC2)c(-c2ccc[nH]2)[nH]n1-c1ccccc1 | > 200 µM | > 200 µM | –
53 | Cc1cn([C@H]2CN(O)C[C@@H](CO)O2)c(=O)[nH]c1=O | > 200 µM | > 200 µM | –
54 | CC1(C)CS(=O)(=O)CC(C)(C)C(=O)C1=O | > 200 µM | > 200 µM | –
55 | C=CCN1C(=O)CS/C1=N\NC(=O)CSc1nc2ccccc2c(=O)n1CC | > 200 µM | > 200 µM | –
56 | Nn1c(Sc2nc3ccccc3c(=O)n2N)nc2ccccc2c1=O | > 200 µM | 3.8 µM | –
57 | CCOC(=O)C1Oc2ccc([N+](=O)[O-])cc2C1(C)O (stereo unspecified) | – | – | inactive
58 | COC(=O)c1ccccc1/C=C1\Cc2ccc3c(c2C1=O)CCCC3 | > 200 µM | > 200 µM | –
59 | CN(C(=O)C12C3C4C5C3C1(C(=O)C13C6C7C8C6C1C8C73)C5C42)C(C)(C)C (stereo unspecified) | > 135 µM | > 135 µM | –
60 | NCCn1ccc(NC(c2ccccc2)(c2ccccc2)c2ccccc2)nc1=O | > 91.2 µM | 45.7 µM | –
61 | CN1CN(C)N(C(=O)c2ccccc2)CN1C(=O)c1ccccc1 | > 200 µM | 97.7 µM | –
62 | CN1C(=O)C(O)(C2=C3OCOC3=CC(=O)C2=O)c2ccccc21 (stereo unspecified) | > 200 µM | 32.4 µM | –
63 | C=CCC12CCC(=O)[C@@]1(C)CC=C(O)C2=O (stereo partly specified) | – | – | inactive
